Results on two compounds are retold here after PMC4310329, “The length of a lantibiotic hinge region has profound influence on antimicrobial activity and host specificity” (Frontiers in Microbiology, 2015).

The test system of one test is L. monocytogenes. The test can be described thus: Agar well diffusion assay. Format: cell-based, Listeria monocytogenes. The note with it: estimated from halo diameter by nisin standard curve, relative to wt. The method, then: (§1) L. lactis strains were cultured in M17 broth supplemented with 0.5% (w/v) glucose (GM17) or GM17 agar for genetic manipulation or in minimal expression medium (MEM) for protein expression at 30°C (Rink et al., [2005]). E. faecalis, S. aureus, S. pneumonia, and L. monocytogenes were grown in GM17 at 37°C or GM17 agar at different temperatures for agar diffusion assay. M. luteus was grown in Luria-Bertani broth shaken (200 rpm) at 30°C or LB agar at 20°C for agar diffusion assay. Bacillus strains were cultured in Brain Heart Infusion (BHI) shaken (200 rpm) or BHI agar at different temperatures for agar diffusion assay.
(§2) For the agar well diffusion assay, the same cultures as in the MIC value test were used and diluted 200 times with solid media. Identical sizes of wells (7.5 mm diameter) were made and 2 μg of hinge region analogs dissolved in 20 μl 0.05% acetic acid were added. The plates were incubated at different temperatures for at least 1 day until apparent halos appeared. For activity test at low temperature, the indicators were diluted in the same way but poured into smaller plates (52 mm diameter). The plates were incubated at 4°C overnight before the peptides were added. B. sporothermodurans IC4 and B. cereus 4153 were first incubated with the peptides at 4°C for 2 weeks then moved to 30°C and incubated overnight. The diameters of the halos were measured.
(§3) The antimicrobial activity of the hinge region analogs in solid media were tested by an agar well diffusion assay. The diameters of the halos were measured and the residual activity of the analogs were estimated according to the formula of the relationship between the concentration of nisin and the sizes of halos. We made use of the fact that the size of the halo is directly related to the log of nisin concentration. Of course this is an estimate of activity of the variants because any changes in diffusion of the variant bacteriocin or growth rates of indicator bacteria during the assay could also affect the size of the halo. (Table 5 and Supplementary Figure 1). The plates were shown in supplementary data (Supplementary Figures 2–8). […] And against L. lactis at 20°C, the inhibition zone was larger than nisin. […] The M. luteus grows quite fast at room temperature and only the +2 variant retained 55% of the activity of nisin. […]
(§4) To evaluate the activity of nisin on the agar plate, an agar well diffusion assay with gradient of nisin against Lactococcus lactis ( with two plasmids) was performed ( Supplementary Figur e 1 A). The diameter of the halos were measured (Supplementary Figure 1B). […]
(§5) the concentration of nisin is in liner relationship with diameter of the halos ( Supplementary Fi g u re 1C). According to the formula (1) , the relative activity of the peptides compared to nisin can be calculated b y the formula ( 2) .
(§6) Supplementary Figure 1. Relationship between concentration of nisin and diameter of the halos. (A) Agar well diffusion assay. Gradient concentration of nisin were made and dissolved in 30µl 0.05% acetic acid. Lactococcus lactis ( with two plasmids) was cultured overnight and diluted 250 times with GM17 agar before added to the plate. The final concentration of the cells was about 2×10^6 cells/milliliter. The plate was incubated for 1 da y. Concentrations of nisin were labeled. (B) log10 of the concentrati ons and diameters of the halo. (C) A linear curve w as made betw een t he diameters of the halo and log10s of the concentration of nisin.
(§7) (1 picture or pasted object on this page, not shown here)
(§8) Last Name a uthor 1 et al. Running Title
(§9) C = concentration of nisin d° = diameter of the halo of wild t ype […]

Test [1] concerns Bacillus sporothermodurans IC4. The test can be described thus: MIC in liquid culture. Format: cell-based. The settings on record: MIC value of nisin divided by that of the analog. As for the experimental part:
as §1
(§10) The indicator strains were cultured until OD (600 nm) reached 0.5. Before MIC value test, the culture was diluted 1000 times to make the concentration of cells around 5 × 10^5 per milliliter. The test was performed using a temperature controlled plate reader [Tecan200 (Tecan Group AG)] and 96 well plate (Greiner Bio-one). 180 μl indicator strain culture mixed with 20 μl hinge region analogs with final concentration from 0.031 μg/ml–32 μg/ml was incubated at 30°C or 37°C for 18 h. OD (600 nm) was checked every 30 min. For aerobic strains, 2 min of shaking was performed before every check. The concentration of peptide without observed growth of indicator strains was considered as the MIC value.

Another test concerns Bacillus cereus 4153. The test is described as follows: MIC in liquid culture. Format: cell-based. The settings on record: MIC value of nisin divided by that of the analog. As for the experimental part: as §1, §10
Test [2] relates to Lactococcus lactis MG1363. The test is described as follows: MIC in liquid culture. The note with it: MIC value of nisin divided by that of the analog. Format: cell-based. As for the experimental part: as §1, §10
Another test concerns Staphylococcus aureus. The test can be described thus: MIC in liquid culture. Format: cell-based. The settings on record: MIC value of nisin divided by that of the analog. The method, then:
as §1, §10

For test [3], the system named is Streptococcus pneumoniae R6. The test is described as follows: MIC in liquid culture. The note with it: MIC value of nisin divided by that of the analog. Format: cell-based. As for the experimental part:
as §1, §10

In another test the test system is Micrococcus luteus. The test is described as follows: MIC in liquid culture. The note with it: MIC value of nisin divided by that of the analog. Format: cell-based. As for the experimental part: as §1, §10
Test [4] relates to Enterococcus faecalis VE14089. The test is described as follows: MIC in liquid culture. Format: cell-based. The settings on record: MIC value of nisin divided by that of the analog. As for the experimental part:
as §1, §10

Another test relates to Bacillus cereus 4147. The test is described as follows: MIC in liquid culture. Format: cell-based. The settings on record: MIC value of nisin divided by that of the analog. The method, then: as §1, §10
The test system of test [5] is Bacillus cereus (L′29) 16. The test is described as follows: MIC in liquid culture. Format: cell-based. The settings on record: MIC value of nisin divided by that of the analog. As for the experimental part: as §1, §10
The subject of a further test is Listeria monocytogenes. The test can be described thus: MIC in liquid culture. Format: cell-based. The note with it: MIC value of nisin divided by that of the analog. As for the experimental part:
as §1, §10

Another test has as its system M. luteus. The test can be described thus: Agar well diffusion assay. Format: cell-based, Micrococcus luteus. The note with it: 20 °C; estimated from halo diameter by nisin standard curve, relative to wt. As for the experimental part:
as §1, §2, §3, §4, §5
as §6, with “nisin. […]” for “nisin.”

For the next test, the system named is S. aureus. The test is described as follows: Agar well diffusion assay. Format: cell-based, Staphylococcus aureus. The note with it: 20 °C; estimated from halo diameter by nisin standard curve, relative to wt. The method, then:
as §1, §2, §3, §4, §5
as §6, with “nisin. […]” for “nisin.”

The next test has as its system L. lactis MG1363. The test is described as follows: Agar well diffusion assay. Format: cell-based, Lactococcus lactis. The note with it: relative to wt. As for the experimental part:
as §1, §2, §3, §4, §5, §6, §7, §8, §9

Another test deals with E. faecalis VE14089. The test is described as follows: Agar well diffusion assay. Format: cell-based, Enterococcus faecalis. The note with it: estimated from halo diameter by nisin standard curve, relative to wt. The method, then: as §1, §2, §3, §4, §5, §6, §7, §8, §9
For another test, the system named is B. sporothermodurans IC4. The test is described as follows: Agar well diffusion assay. Format: cell-based, Bacillus sporothermodurans. The settings on record: 30 °C; estimated from halo diameter by nisin standard curve, relative to wt. As for the experimental part: as §1
as §2, with “B. sporothermodurans IC4 and B. cereus 4153 were first incubated with the peptides at 4°C for 2 weeks then moved to 30°C and incubated overnight.” left out
The antimicrobial activity of the hinge region analogs in solid media were tested by an agar well diffusion assay. The diameters of the halos were measured and the residual activity of the analogs were estimated according to the formula of the relationship between the concentration of nisin and the sizes of halos. […]
as §4
the concentration of nisin is in liner relationship with diameter of the halos ( Supplementary Fi g u re 1C). According to the formula (1) , the relative activity of the peptides compared to nisin can be calculated b y the formula ( 2) . […]

[6] abbreviates: 20 °C, estimated from halo diameter by nisin standard curve (halo diameter vs log of nisin concentration).
[7] abbreviates: 30 °C, estimated from halo diameter by nisin standard curve.

Structures are written as SMILES. Bounds are passed on as bounds.

Take `C=C(NC(=O)[C@@H](NC(=O)[C@H](Cc1c[nH]cn1)NC(=O)[C@@H](NC(=O)[C@H](CO)NC(=O)[C@@H]1CS[C@@H](C)[C@H]2NC(=O)[C@H](C)NC(=O)[C@H](NC(=O)[C@H](CCCCN)NC(=O)[C@H](CCSC)NC(=O)[C@H](CC(C)C)NC(=O)[C@@H](NC(=O)[C@@H](NC(=O)[C@H](CC(N)=O)NC(=O)[C@@H]3CS[C@@H](C)[C@@H](NC(=O)[C@H](CCCCN)NC(=O)[C@@H]4CS[C@@H](C)[C@@H](NC(=O)[C@@H]5CSC[C@@H](NC(=O)/C(=C/C)NC(=O)[C@@H](N)[C@@H](C)CC)C(=O)N[C@@H]([C@@H](C)CC)C(=O)NC(=C)C(=O)N[C@@H](CC(C)C)C(=O)N5)C(=O)N5CCC[C@H]5C(=O)NCC(=O)N4)C(=O)NCC(=O)N[C@@H](C)C(=O)N[C@@H](CC(C)C)C(=O)N[C@@H](CCSC)C(=O)NCC(=O)N3)[C@@H](C)CC)C(C)C)[C@H](C)SC[C@H](NC2=O)C(=O)N[C@@H](Cc2c[nH]cn2)C(=O)N1)[C@@H](C)CC)C(C)C)C(=O)N[C@@H](CCCCN)C(=O)O` [+3]: the Residual activity with L. monocytogenes (20 °C) is 3%; with L. monocytogenes (30 °C), 3%; with M. luteus, 7%; with S. aureus, 0%; in the test on L. lactis MG1363 (setting [6]) it was 5%; in the test with L. lactis MG1363 (setting [7]), 3%. The Residual activity in the test with E. faecalis VE14089 (20 °C) is 6%; in the test with E. faecalis VE14089 (30 °C) it was 9%; in the test with E. faecalis VE14089 (37 °C), 14%; with B. sporothermodurans IC4, 10%. In addition, the “Residual activity of variants compared to nisin” value in test [1] is reported as 17%; in the test on Bacillus cereus 4153 it was 13%; in test [2], 13%; with Staphylococcus aureus, <3%; in test [3], 13%; with Micrococcus luteus it was 25%. In addition, the “Residual activity of variants compared to nisin” value in [4] is on record as <21%; with Bacillus cereus 4147, 25%; in test [5], 13%; in the test with Listeria monocytogenes it was <25%.
Regarding `C=C(NC(=O)[C@@H](NC(=O)[C@H](Cc1c[nH]cn1)NC(=O)[C@@H](NC(=O)[C@H](CO)NC(=O)[C@@H]1CS[C@@H](C)[C@H]2NC(=O)[C@H](C)NC(=O)[C@H](NC(=O)[C@H](CCCCN)NC(=O)[C@H](CC(N)=O)NC(=O)[C@@H]3CS[C@@H](C)[C@@H](NC(=O)[C@H](CCCCN)NC(=O)[C@@H]4CS[C@@H](C)[C@@H](NC(=O)[C@@H]5CSC[C@@H](NC(=O)/C(=C/C)NC(=O)[C@@H](N)[C@@H](C)CC)C(=O)N[C@@H]([C@@H](C)CC)C(=O)NC(=C)C(=O)N[C@@H](CC(C)C)C(=O)N5)C(=O)N5CCC[C@H]5C(=O)NCC(=O)N4)C(=O)NCC(=O)N[C@@H](C)C(=O)N[C@@H](CC(C)C)C(=O)N[C@@H](CCSC)C(=O)NCC(=O)N3)[C@H](C)SC[C@H](NC2=O)C(=O)N[C@@H](Cc2c[nH]cn2)C(=O)N1)[C@@H](C)CC)C(C)C)C(=O)N[C@@H](CCCCN)C(=O)O` [−1], the Residual activity with L. monocytogenes (20 °C) was 19%; in the test with L. monocytogenes (30 °C), 29%; with M. luteus, 0%; in the test on S. aureus, 16%; with L. lactis MG1363 (setting [6]) it was 33%; in the test with L. lactis MG1363 (setting [7]) it was 17%. Also, the Residual activity was 21% with E. faecalis VE14089 (20 °C), 72% in the test on E. faecalis VE14089 (30 °C), 140% in the test with E. faecalis VE14089 (37 °C) and 522% in the test with B. sporothermodurans IC4. For the same compound, the “Residual activity of variants compared to nisin” value in test [1] was 50%; in the test with Bacillus cereus 4153 it was <13%; in test [2] it was 3%; in the test with Staphylococcus aureus it was 3%; in test [3], 25%; with Micrococcus luteus, <25%. Further, the “Residual activity of variants compared to nisin” value in [4] was <6%; with Bacillus cereus 4147, <13%; in test [5], <13%; with Listeria monocytogenes it was <25%.
